According to patent publication US5763435A, “Sulfate conjugates of ursodeoxycholic acid, and their beneficial use in inflammatory disorders” (priority 1995, dated 1998):
Entries after “also recorded” stand apart in the source; their conditions may differ.

Legend:
[1] = test system: Principal Bile Acids in Colon; assay: Bile acid composition of colon after oral administration (GC-MS); format: in vivo, Sprague-Dawley rats; conditions: for Chenodeoxycholic acid mass in colon / Cholic acid mass in colon / Cholic acid percent of colonic bile acids / Deoxycholic acid mass in colon / Deoxycholic acid percent of colonic bile acids / Lithocholic acid mass in colon / Lithocholic acid percent of colonic bile acids / Total bile acid mass in colon / UDCA mass in colon / UDCA percent of colonic bile acids / Δ^22-UDCA mass in colon / Δ^22-UDCA percent of colonic bile acids / Δ^22-ω-Muricholic acid mass in colon / α-Muricholic acid mass in colon / β-Muricholic acid mass in colon / ω-Muricholic acid mass in colon / Δ^22-β-Muricholic acid mass in colon: oral gavage 250 mg/day, 4 days, mean ± SEM; for Change in colonic deoxycholic / lithocholic acid (in words): oral, vs control
Experimental: (§1) Male Sprague-Dawley rats (Harlan Sprague-Dawley, Inc., Indianapolis, Ind.), weighing 210-290 g, were maintained on a 12-hour light-dark cycle and fed standard laboratory chow ad libitum for 3 days. The animals were then transferred to metabolic cages in which they were housed individually and fed the same diet. UDCA, UDCA 3-sulfate, UDCA 7-sulfate, and UDCA 3,7-disulfate were administered by gavage at a dose of 250 mg/day for 4 consecutive days. Each group comprised 3-6 rats. Body weights of the animals were measured each day. On day 5, the animals were killed by exsanguination under ether anesthesia. Plasma was collected and frozen at -20° C. The liver was removed, rinsed in normal saline, and flash-frozen in liquid nitrogen. Urine and feces were collected every 24 hours and frozen at -20° C. All animals received humane care in compliance with the "Guide for the Care and Use of Laboratory Animals" prepared by the National Academy of Sciences (National Institutes of Health publication no. 86-23, revised in 1985).
(§2) Intestinal contents were weighed and dissected into small pieces. In each group, feces (100 mg) from all animals were pooled on day 4 of the study and then ground into a fine paste. All samples were sonicated and sequentially refluxed in 80% methanol for 2 hours and chloroform/methanol (1:1) for 1 hour. Samples were taken to dryness, and the dried extracts were resuspended in 80% methanol (20 mL). Fractions of the methanolic extract (1/40 of intestinal contents and 1/20 of feces samples) were removed and the internal standard nordeoxycholic acid (10 μg) was added. This extract was diluted with 0.01 mol/L acetic acid (20 mL) and passed first through a column of Lipidex 1000 (bed size, 4×1 cm; Packard Instrument Co., Groningen, The Netherlands) and then through a Bond-Elut C18, cartridge (Analytichem, Harbor City, Calif.). Bile acids were recovered by elution of the Lipidex 1000 column and the Bond-Elut cartridge with methanol (20 mL and 5 mL, respectively), and the combined extracts were taken to dryness. Unconjugated bile acids were isolated and separated from neutral sterol and conjugated bile acids by lipophilic anion exchange chromatography on diethylaminohydroxypropyl Sephadex LH-20 (Lipidex-DEAP; Package Instrument Co.). Recovery of unconjugated bile acids was achieved by elution with 0.1 mol/L acetic acid in 72% ethanol (7 mL) followed by evaporation of the solvents. Total conjugated bile acids were recovered with 9 mL of 0.3 mol/L acetic acid in 72% ethanol, pH 9.6. Salts were removed by passage through a Bond-Elut C18 cartridge after addition of nordeoxycholic acid (10 μg), and conjugated bile acids were recovered by elution with 5 mL of methanol. Solvolysis was performed in a mixture of methanol (1 mL), distilled tetrahydrofuran (9 mL), and 1 mol/L trifluoracetic acid in dioxane (0.1 mL) and heated to 45° C for 2 hours. After solvolysis, unconjugated bile acids were isolated by chromatography on Lipidex-DEAP. Methyl ester derivatives were prepared by dissolving the sample in methanol (0.3 mL) and reacting with 2.7 mL of freshly distilled ethereal diazomethane. After evaporation of the reagents, the methyl ester derivatives were converted to trimethylsilyl ethers by the addition of […] of Tri-Sil reagent (Pierce Chemicals, Rockford, Ill.). A column of Lipidex 5000 (Packard Instrument Co.) was used to remove derivatizing reagents and to purify the sample.
(§3) GC-MS analysis was performed using a Finnigan 4635 mass spectrometer (Finnigan Inc., San Jose, Calif.) that housed an identical gas chromatography column operated under the same conditions. Electron ionization (70 eV) mass spectra were recorded over the mass range of 50-800 daltons by repetitive scanning of the eluting components. […]

[2] = test system: chemically induced colon cancer; conditions: in vivo; cited from earlier work
[3] = Plasma UDCA concentration after oral administration; format: in vivo, Sprague-Dawley rats; conditions: read-out: Unconjugated plasma UDCA concentration
Experimental: Male Sprague-Dawley rats (Harlan Sprague-Dawley, Inc., Indianapolis, Ind.), weighing 210-290 g, were maintained on a 12-hour light-dark cycle and fed standard laboratory chow ad libitum for 3 days. The animals were then transferred to metabolic cages in which they were housed individually and fed the same diet. UDCA, UDCA 3-sulfate, UDCA 7-sulfate, and UDCA 3,7-disulfate were administered by gavage at a dose of 250 mg/day for 4 consecutive days. Each group comprised 3-6 rats. Body weights of the animals were measured each day. On day 5, the animals were killed by exsanguination under ether anesthesia. Plasma was collected and frozen at -20° C. […]
In each group, urine from all animals was pooled on the individual days of collection. […] After the addition of nordeoxycholic acid (1 μg), bile acids were quantitatively extracted from portions of urine (3 mL) and plasma (1 mL) using Bond-Elut C18 cartridges. […]
as §3
Data are expressed as mean±SEM or as mean values of all animals when extracts were pooled before analysis. […]

serum liver enzymes = conditions: oral administration; cited from earlier work
fecal bile acids = assay: Fecal bile acid excretion after oral administration; format: in vivo, Sprague-Dawley rats; conditions: for Total fecal bile acid excretion: pooled feces day 4; for Fecal lithocholate/deoxycholate ratio (in words) / Fecal lithocholic acid excretion (in words): vs control
Experimental: as §1, §2, §3

Structure (SMILES)	Chenodeoxycholic acid mass in colon [1] [mg]	Cholic acid mass in colon [1] [mg]	Cholic acid percent of colonic bile acids [1] [%]	Deoxycholic acid mass in colon [1]	Deoxycholic acid percent of colonic bile acids [1] [%]	Lithocholic acid mass in colon [1] [mg]	Lithocholic acid percent of colonic bile acids [1] [%]	Total bile acid mass in colon [1] [mg]	UDCA mass in colon [1] [mg]	UDCA percent of colonic bile acids [1] [%]	Δ^22-UDCA percent of colonic bile acids [1] [%]	Δ^22-ω-Muricholic acid mass in colon [1] [mg]	α-Muricholic acid mass in colon [1] [mg]	β-Muricholic acid mass in colon [1] [mg]	ω-Muricholic acid mass in colon [1] [mg]	Change in colonic deoxycholic / lithocholic acid (in words) [1]	Form of UDCA excreted in feces (fecal bile acids)	Total fecal bile acid excretion (fecal bile acids) [mg/g feces]	Fecal lithocholate/deoxycholate ratio (in words) (fecal bile acids)	Δ^22-β-Muricholic acid mass in colon [1] [mg]	further results
C[C@H](CCC(=O)O)[C@H]1CC[C@H]2[C@@H]3[C@@H](O)C[C@@H]4C[C@H](O)CC[C@]4(C)[C@H]3CC[C@]12C [UDCA, 3 alpha, 7 beta-dihydroxy-5 beta-cholan-24oic acid, reference compound]	0.05	0.24	8.9	0.31 mg	10.4	0.97	32.0	3.04	0.31	8.3	0.4	0.19	0.01	0.13	0.83	decrease (P=0.003) in the proportion of deoxycholic acid	almost exclusively found in the unconjugated form	14.85	markedly increased	–	Δ^22-UDCA mass in colon [1]: 0.02 mg; Effect in colon cancer models (in words) [2]: beneficial effects; concentration [3]: 4.8 ± 2.2 µM; Serum liver enzymes (in words) (serum liver enzymes): significant improvement in serum liver enzymes; Fecal deoxycholic acid (in words) (fecal bile acids): increase in deoxycholic acid in the feces; Increase of fecal lithocholic acid/deoxycholic acid ratio vs normal rat feces (fecal bile acids): more than 20 fold; Fecal lithocholic acid excretion (in words) (fecal bile acids): increased markedly from control values; also recorded: large increase in the fecal lithocholic acid concentration
C[C@H](CCC(=O)O)[C@H]1CC[C@H]2[C@@H]3[C@@H](O)C[C@@H]4C[C@H](OS(=O)(=O)O)CC[C@]4(C)[C@H]3CC[C@]12C [UDCA-3S, ursodeoxycholic acid 3-sulfate]	0.06	0.44	13.8	.58 mg	17.4	0.61	18.4	4.07	0.05	1.5 ± 0.2	0.2 ± 0.1	0.44	0.02	0.20	1.67	–	–	10.70	markedly increased	0.01	Δ^22-UDCA mass in colon [1]: 0.01 mg; Increase of fecal lithocholic acid/deoxycholic acid ratio vs normal rat feces (fecal bile acids): 11 fold; Fecal lithocholic acid excretion (in words) (fecal bile acids): large increase in the fecal lithocholic acid concentration
C[C@H](CCC(=O)O)[C@H]1CC[C@H]2[C@@H]3[C@@H](OS(=O)(=O)O)C[C@@H]4C[C@H](O)CC[C@]4(C)[C@H]3CC[C@]12C [UDCA-7S, ursodeoxycholic acid 7-sulfate]	0.06	0.09	2.5	0.36 mg	11.4	0.04	1.3	2.98	1.28	44.0	0	0.15	0.03	0.06	0.88	substantial reductions in the mass and proportion of both deoxycholic acid and lithocholic acid	excreted in feces virtually unchanged	12.65	no change in the lithocholate/deoxycholate ratio	0.03	Fecal concentration of total UDCA (in words) (fecal bile acids): markedly greater than that found in the feces of animals administered UDCA or UDCA 3-sulfate
C[C@H](CCC(=O)O)[C@H]1CC[C@H]2[C@@H]3[C@@H](OS(=O)(=O)O)C[C@@H]4C[C@H](OS(=O)(=O)O)CC[C@]4(C)[C@H]3CC[C@]12C [UDCA-DS, ursodeoxycholic acid 3,7-disulfate]	0.07	0.23	26.3	0.31 mg	27.2	0.02	1.8	1.22	0.20	14.7	0	0.06	0.03	0.06	0.24	substantial reductions in the mass and proportion of both deoxycholic acid and lithocholic acid	excreted in feces virtually unchanged	10.88	no change in the lithocholate/deoxycholate ratio	0.01	Fecal concentration of total UDCA (in words) (fecal bile acids): markedly greater than that found in the feces of animals administered UDCA or UDCA 3-sulfate
